# Experimental data taken from US20130274247A1 (priority 2012, published 2013).
# Read-outs that look alike come from different tables or passages of the source.
# Experiments:
# [1] = humans; cited from earlier work
# cats = details: cited from earlier work
# young normal cats = details: cited from earlier work
# [2] = Stability of compounded 1.88 mg mirtazapine capsules (LC/MS/MS); assay type: physicochemical; details: compounded 1.88 mg capsules
# Description: The method used is guaranteed to produce accurate compounding to within 10% of the target dose.
# [3] = cited from earlier work
# in vivo = experiment: in vivo; parameters: species or system cat; details: for AUC(0-inf) / CL/F / Cmax / Tmax / Vd/F: both sexes
# Description: In this prospective pharmacokinetic study, 6 client-owned stable CKD cats, 2 each from International Renal Interest Society (IRIS) stages II, III and IV, […] and 6 age-matched (within 6 months) healthy geriatric control cats (AMC) were enrolled by stratified convenience sampling. There were 4 spayed females and 2 neutered males in the CKD group and 3 spayed females and 3 neutered males in the AMC group. […] Diagnostic tests required before enrollment included a minimum database consisting of serum biochemistry profile, CBC, urinalysis, urine culture, blood pressure, and serum total thyroxine concentration. […] Exclusion criteria included other systemic illnesses, complications of CKD such as hypertension, pyelonephritis or ureteral obstruction, or decompensation of CKD requiring hospitalization and IV fluid therapy. The project was approved by the Institutional Animal Care and Use Committee at Colorado State University, and all owners gave written informed consent before participation. […] Samples were centrifuged within 10 minutes of collection and serum was harvested and stored at —80° C. until analysis. […] Pharmacokinetic analysis was performed using a non-compartmental method. Area under the curve to infinity (AUC∞), disappearance half-life (t½^λ), time to maximum serum concentration (Tmax), and maximum serum concentration (Cmax) were calculated. […] The terminal elimination rate was used for estimating the accumulation factor as the applicable kel, and the dosing interval (T) was set at 24 or 48 hours. Comparison of pharmacokinetic parameters between the CKD and AMC cat groups was performed using a Mann-Whitney U-test. Prism software© was used for all analyses.
# CKD cats = experiment: Effect of mirtazapine on weight, appetite, activity and vomiting in CKD cats; assay type: in vivo, cat; details: 1.88 mg every other day for three weeks
# Description: FIG. 1. […] FIG. 2. […] FIG. 3. […] FIG. 4.
smiles,measurement,setting,value
CN1CCN2c3ncccc3Cc3ccccc3C2C1 (stereo not shown) [mirtazapine],AUC in young men compared to women,[1],lower
same,"other reported adverse effects (hyperexcitability, muscle tremors)",cats,mild and dose dependent
same,food consumption as compared to placebo,young normal cats; 1.88 mg/cat,increased food consumption
same,food consumption as compared to placebo,young normal cats; 3.75 mg/cat,increased food consumption
same,appetite stimulation,young normal cats; dose of 1.88 mg,significantly stimulates appetite
same,stability as formulated,[2],at least 6 months
same,mean AUC,"[3]; normal cats, previously reported",397 ng/mL/h
same,mean CL/F,[3]; young healthy cats,18.3 mL/min/kg
same,difference in AUC∞ between AMC cats and CKD cats,in vivo,statistically significant difference
same,AUC(0-inf),"in vivo; po, 1.88 mg, Mean ± SD",590 ± 185 ng·h/mL
same,AUC(0-inf),"in vivo; po, 1.88 mg, Median",561 ng·h/mL
same,CL/F,"in vivo; po, 1.88 mg, Mean ± SD",13.2 mL/min/kg
same,CL/F,"in vivo; po, 1.88 mg, Median",12.2 mL/min/kg
same,Cmax,"in vivo; po, 1.88 mg, Mean ± SD",79.6 ± 21.7 ng/mL
same,Cmax,"in vivo; po, 1.88 mg, Median",83.6 ng/mL
same,Tmax,"in vivo; po, 1.88 mg, Mean ± SD",2 ± 1.5 h
same,Tmax,"in vivo; po, 1.88 mg, Median",1 h
same,Vd/F,"in vivo; po, 1.88 mg, Mean ± SD",13.9 ± 3.2 L
same,Vd/F,"in vivo; po, 1.88 mg, Median",14.4 L
same,"CL/F, Mean ± SD","in vivo; both, po, 1.88 mg",10.2 mL/min/kg
same,"CL/F, Median","in vivo; both, po, 1.88 mg",10 mL/min/kg
same,"Cmax, Mean ± SD","in vivo; both, po, 1.88 mg",110.6 ± 30.8 ng/mL
same,"Cmax, Median","in vivo; both, po, 1.88 mg",109.5 ng/mL
same,"AUC∞, Mean ± SD","in vivo; po, 1.88 mg",866.5 ± 257.9 ng·h/mL
same,"AUC∞, Median","in vivo; po, 1.88 mg",828.4 ng·h/mL
same,"Vd/F, Mean ± SD","in vivo; po, 1.88 mg",13.6 ± 2.0 L
same,"Vd/F, Median","in vivo; po, 1.88 mg",13.4 L
same,Effect on weight,CKD cats; p=0.002,statistically significant increase
same,Effect on activity,CKD cats; p=0.02,statistically significant increase
same,Effect on appetite score,CKD cats; p=0.02,statistically significant increase
same,Effect on vomiting,CKD cats; p=0.047,statistically significant decrease
